Laboratory results taken from patent publication US11801239B2, “Powder injection of the donepezil semi palmoxiric acid salt, composition containing same and preparation method therefor” (priority 2017, dated 2023).

How the values were obtained:
[1] = measured by a laser granulometer
Experimental: Step 3: 0.2 g of donepezil semi pamoate seed crystals (the preparation method refers to example 4 of patent WO2013078608) were added into the filtrate obtained in step 1 to obtain a solution. Then the filtrate obtained in step 2 was slowly and dropwise added into the above solution at room temperature over 1 hour, slowly stirred for 5-10 hours with an anchor stir bar and filtered.
Step 1 and step 2 are the same as those of powder 1 #. Step 3: 0.2 g of donepezil semi pamoate seed crystals (the preparation method is the same as above) were added into the filtrate obtained in step 1 to obtain a solution. Then the filtrate obtained in step 2 was slowly and dropwise added into the above solution at 4-10° C. over 1 hour, stirred for 1-2 hours at room temperature and filtered.
Step 1 and step 2 are the same as those of powder 1 #. Step 3: 0.2 g of donepezil semi pamoate seed crystals (the preparation method refers to patent WO2013078608) were added into the filtrate obtained in step 1 to obtain a solution. Then the obtained solution was heated to 50-60° C. The filtrate obtained in step 2 was slowly and dropwise added into the above solution. After completion of the addition, the reaction solution was cooled to room temperature, stirred for 1-2 hours, and filtered.

[2] = for Appearance observed: dry powder; for Angle of repose: funnel method, arctg (H/r); for fluidity: judged from angle of repose
Experimental: The angle of repose is a common index for evaluating the fluidity of dry powder. When measuring the angle of repose, the funnel is fixed at a suitable height H. The dry powder prepared in Example 1 was placed in a funnel and naturally leaked to form a pile until tip of the cone almost contacts the outlet of the funnel. Then, the radius r of the bottom surface of the cone was measured, and the angle of repose is arctg (H/r).

[3] = 160° C. for 2 hours
Experimental: The powder 3 # prepared in Example 1 was placed at 160° C. for 2 hours, and the changes in appearance and weight loss thereof were recorded.

SMILES | average particle size D50 [1] | Appearance observed [2] | Angle of repose [2] | fluidity [2] | changes in appearance [3] | weight loss [3]
COc1cc2c(cc1OC)C(=O)C(CC1CCN(Cc3ccccc3)CC1)C2.COc1cc2c(cc1OC)C(=O)C(CC1CCN(Cc3ccccc3)CC1)C2.O=C(O)c1cc2ccccc2c(Cc2c(O)c(C(=O)O)cc3ccccc23)c1O [Powder 1#, donepezil semi pamoate] | 90 ± 17 µm | Homogeneous solid particles | 28 ± 4 ° | certain fluidity | – | –
COc1cc2c(cc1OC)C(=O)C(CC1CCN(Cc3ccccc3)CC1)C2.COc1cc2c(cc1OC)C(=O)C(CC1CCN(Cc3ccccc3)CC1)C2.O=C(O)c1cc2ccccc2c(Cc2c(O)c(C(=O)O)cc3ccccc23)c1O [Powder 2#, donepezil semi pamoate] | 42 ± 10 µm | Homogeneous solid particles | 35 ± 3 ° | certain fluidity | – | –
COc1cc2c(cc1OC)C(=O)C(CC1CCN(Cc3ccccc3)CC1)C2.COc1cc2c(cc1OC)C(=O)C(CC1CCN(Cc3ccccc3)CC1)C2.O=C(O)c1cc2ccccc2c(Cc2c(O)c(C(=O)O)cc3ccccc23)c1O [Powder 3#, donepezil semi pamoate] | 13 ± 2 µm | Homogeneous solid particles | 42 ± 1 ° | certain fluidity | gradually changed from light yellow to bright brown, and finally coagulated and melted | about 5.14%
COc1cc2c(cc1OC)C(=O)C(CC1CCN(Cc3ccccc3)CC1)C2.COc1cc2c(cc1OC)C(=O)C(CC1CCN(Cc3ccccc3)CC1)C2.O=C(O)c1cc2ccccc2c(Cc2c(O)c(C(=O)O)cc3ccccc23)c1O [Powder 4#, donepezil semi pamoate] | 3 ± 1 µm | Homogeneous solid particles | 38 ± 3 ° | certain fluidity | – | –
COc1cc2c(cc1OC)C(=O)C(CC1CCN(Cc3ccccc3)CC1)C2.COc1cc2c(cc1OC)C(=O)C(CC1CCN(Cc3ccccc3)CC1)C2.O=C(O)c1cc2ccccc2c(Cc2c(O)c(C(=O)O)cc3ccccc23)c1O [Powder 5#, donepezil semi pamoate] | 0.9 ± 0.4 µm | Obvious static electricity, | 50 ± 4 ° | poor fluidity | – | –
